From paper PMC10388297, “Mixture-Based Screening of Focused Combinatorial Libraries by NMR: Application to the Antiapoptotic Protein hMcl-1” (Journal of Medicinal Chemistry, 2023)
“And” between values parts separate entries of the source, which are not always exact repeats. Equal entries are not always repeated. Where two headings read alike, the source gives them in different places. Blank lines part the entries; values can stand above or below the molecule they belong to.

Tests used:
Assay type in all cases: binding
[1] = target: T1, hMcl-1 (Homo sapiens, UniProt Q07820); assay: DELFIA displacement assay, biotinylated BH3 peptide from hMcl-1; conditions: for IC50: hMcl-1 16 nM, room temperature
T1 construct: His tag (N); made in house; host or cells: E. coli BL21 (DE3) gold pLysS
T1 sequence (Q07820 172-323): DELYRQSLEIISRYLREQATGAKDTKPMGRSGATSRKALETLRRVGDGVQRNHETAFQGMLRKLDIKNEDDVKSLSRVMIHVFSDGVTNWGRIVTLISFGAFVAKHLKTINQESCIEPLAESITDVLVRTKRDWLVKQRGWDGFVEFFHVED
Protocol: (§1) Perturbations observed by ligand binding can be measured and qualitatively used to roughly rank order compound binding, or compound mixtures in this case, in the initial screening campaign (Figure 2). As a control, we used a potent hMcl-1 binding ligand A1210477[37] (Figure 2A).
(§2) Each well of 96-well streptavidin-coated plates (PerkinElmer) was incubated with 100 μL of a 600 ng/mL biotinylated-BH3 peptide of sequence biotin-amino-hexanoic acid-[…]-NH2 for 2 h and washed 3 times with a wash solution (PerkinElmer). Subsequently, a mixture containing 11 μL of protein and a serial dilution of the test compounds as well as 89 μL of an Eu-N1-labeled anti-6x-His antibody (PerkinElmer) was added to each well and incubated for 2 h. Plates were then washed 3 times, and 200 μL of enhancement solution (PerkinElmer) was added to each well. After a 10 min incubation, fluorescence measurements were taken with a Victor X5 microplate reader with the excitation and emission wavelengths of 340 and 615, respectively. All the incubations were performed at room temperature. The final protein concentrations used for hBfl-1 and hMcl-1 were 15 and 16 nM, respectively and the final anti-6x-His antibody used was 22.2 ng/well. Fluorescence readings were normalized to those of 1% DMSO-treated wells and reported as % inhibition. Prism 9 (GraphPad) was used to calculate IC50 values.

[2] = target: T1, hMcl-1; assay: 1D 1H NMR aliphatic region chemical shift perturbation / titration; conditions: for CSP1 (Table S3) / CSP1 (Table S4): total shift of the two peaks overlapping at -0.616 ppm
Description: as §1
(§3) NMR spectra were acquired on a Bruker Avance III 700 MHz spectrometer equipped with a TCI cryoprobe. All NMR data were processed and analyzed using TopSpin 4.1.0 (Bruker, Billerica, MA). For the mixture screening, each of the 96 mixtures was dissolved into a 5 mm NMR tube to a final concentration of 2 mM in the presence of 20 μM hMcl-1 in a buffer containing 40 mM Tris pH = 7.5, 150 mM NaCl, and 1 mM DTT. For each mixture, 1D ^1H-aliph experiments were acquired. For ranking purposes, a total chemical shift perturbation generated by each mixture to the five peaks around 0 ppm in the 1D ^1H-aliph spectra of hMcl-1 was considered (Figure 4). 2D-[^13C,^1H]-HSQC experiments were acquired with 20 μM protein using 32 scans with 2048 and 256 complex data points in the ^1H and ^13C dimensions, respectively, at 298 K.

[3] = target: T1, hMcl-1; assay: Isothermal titration calorimetry
Protocol: Isothermal titration calorimetry measurements were performed using an Affinity ITC autosampler from TA Instruments (New Castle, DE). The titrations were performed in a direct fashion by titrating the ligand solution into the protein. All the measurements were performed at 25 °C dissolving the agents in 50 mM phosphate at pH 7.5, 150 mM NaCl, and a final DMSO concentration of 1%. To test compound 12, the syringe was filled with a 2 mM solution of compound 12, and 20 injections of 5 μL each were performed into the cell containing a 100 μM solution of the protein. The injections were made at 200 s intervals with a stirring speed of 75 rpm. To test compound 50, the syringe was filled with a 500 μM solution of compound 50, and 20 injections of 5 μL each were performed into the cell containing a 50 μM solution of the protein. The injections were made at 200 s intervals with a stirring speed of 75 rpm. All the solutions were kept in the autosampler at 4 °C. The analysis of the thermodynamics signatures and for dissociation constant determination was performed by NanoAnalyze software (TA Instruments, New Castle, DE) and subsequently exported into Microsoft Excel.

[4] = target: T2, 13Cε-Met-labeled hMcl-1 (Homo sapiens, UniProt Q07820); assay: 2D [13C,1H] correlation spectra with 13Cε-Met-labeled hMcl-1
T2 construct: His tag (N); made in house; host or cells: E. coli BL21 (DE3) gold pLysS
T2 sequence (Q07820 172-323): as above
Description: To further corroborate the possible binding location and pose of the agent, we collected NMR experiments with a selectively ^13C^ε-Met-labeled hMcl-1.[1] In the sequence of hMcl-1, there are 4 Met residues, where two located outside the biding pocket, namely, Met 170 and Met 199, while two Met residues are directly present in the BH3 binding pocket, namely, Met 231 and Met 250 (Figure 8). […] Smaller yet still relatively large perturbations were also observed in the resonances of Met 250, located also across the indole in our model but not as directly juxtaposed as Met 231 with our ligand (Figure 8). […] This piece of data supports the location of the binding of our agent and possibly also corroborates its predicted binding pose.
as §3, with “2D-[^13C,^1H]-HSQC experiments were acquired with 20 μM protein using 32 scans with 2048 and 256 complex data points in the ^1H and ^13C dimensions, respectively, at 298 K.” left out

[5] = target: T3, hBfl-1 (Homo sapiens, UniProt Q16548); assay: DELFIA displacement assay, hBfl-1; conditions: hBfl-1 15 nM
T3 sequence (Q16548 1-175): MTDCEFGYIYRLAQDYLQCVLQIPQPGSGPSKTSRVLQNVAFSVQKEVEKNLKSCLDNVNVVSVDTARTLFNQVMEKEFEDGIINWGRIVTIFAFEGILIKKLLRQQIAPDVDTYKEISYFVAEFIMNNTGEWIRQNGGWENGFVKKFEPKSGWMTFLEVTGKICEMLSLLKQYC
Protocol: as §2

[6] = 25 °C, pH 7.5, 1% DMSO, read-out: Kd by isothermal titration calorimetry
[7] = supplementary CSV, values match ITC, read-out: Kd (uM) (n=2)

SMILES: COc1cc(C)c(C(C)C)cc1S(=O)(=O)N[C@H](CCC(=O)O)C(=O)N[C@@H](CC1CCCCC1)C(N)=O [Compound 15]
- CSP1 (Table S3) [2]: + (0.01 ppm < CSP < 0.05 ppm)

SMILES: COc1cc(C)c(C(C)C)cc1S(=O)(=O)N[C@H](CC(=O)O)C(=O)N[C@@H](CC1CCCCC1)C(N)=O [Compound 13]
- CSP1 (Table S3) ([2]; listed as Compound (13)): + (0.01 ppm < CSP < 0.05 ppm)

SMILES: COc1cc(C)c(C(C)C)cc1S(=O)(=O)N[C@H](CC(=O)O)C(=O)N[C@@H](CC1CCCCC1)C(=O)N[C@H](Cc1c[nH]c2ccccc12)C(N)=O [Compound 21, (R)-4-(((S)-1-(((R)-1-Amino-3-(1H-indol-3-yl)-1-oxopropan-2-yl)amino)-3-cyclohexyl-1-oxopropan-2-yl)amino)-3-((5-isopropyl-2-methoxy-4-methylphenyl)sulfonamido)-4-oxobutanoic Acid]
- CSP in the 1D-1H-aliphatic region of hMcl-1, comparison among P4 compounds ([2]; 20 μM hMcl-1, compound 100 μM): bigger CSP
- Kd ([2]; 1D 1H NMR, hMcl-1 20 μM, read-out: dissociation constant estimated by NMR titration): ~30 µM
- CSP1 (Table S4) [2]: +++ (0.1 ppm < CSP < 0.13 ppm)

SMILES: COc1cc(C)c(C(C)C)cc1S(=O)(=O)N[C@H](CC(=O)O)C(=O)N[C@@H](CC1CCCCC1)C(N)=O [Compound 12, (R)-4-(((S)-1-Amino-3-cyclohexyl-1-oxopropan-2-yl)amino)-3-((5-isopropyl-2-methoxy-4-methylphenyl)sulfonamido)-4-oxobutanoic Acid]
- Kd [3, 6]: ~450 µM
- dissociation constant estimated by NMR titration ([2]; 1D 1H NMR, hMcl-1 20 μM): triple-digit micromolar
- CSP1 (Table S3) ([2]; listed as Compound (12)): ++ (0.05 ppm < CSP < 0.1 ppm)

SMILES: COc1cc(C)c(C(C)C)cc1S(=O)(=O)N[C@@H](CCC(=O)O)C(=O)N[C@@H](CC1CCCCC1)C(N)=O [Compound 14]
- CSP1 (Table S3) [2]: + (0.01 ppm < CSP < 0.05 ppm)

Results, then the molecule that gave them:

- LE ([1]; from DELFIA IC50): ~0.17
- IC50 ([1]; read-out: IC50, displacement of biotinylated BH3 peptide from hMcl-1 (DELFIA)): 0.014 µM
SMILES: Cc1nn(C)c(COc2ccc(N3CCN(S(=O)(=O)N(C)C)CC3)cc2)c1-c1cccc2c(CCCOc3cccc4ccccc34)c(C(=O)O)n(CCN3CCOCC3)c12 [Compound A1210477]

- Kd [3, 6]: 2.84 ± 0.67 µM
- Kd [3, 7]: 2.84 ± 0.7 µM
SMILES: COc1ccc(C(C)C)cc1S(=O)(=O)NC(CC(=O)O)C(=O)N1C(C(=O)NC(Cc2c[nH]c3ccccc23)C(N)=O)CC2CCCCC21 (stereo not shown) [Compound 60]

- Kd [3, 6]: 4.62 ± 0.37 µM
- Kd [3, 7]: 4.62 ± 0.4 µM
SMILES: COc1ccc2[nH]cc(CC(NC(=O)C3CC4CCCCC4N3C(=O)C(CC(=O)O)NS(=O)(=O)c3cc(C(C)C)c(C)cc3OC)C(N)=O)c2c1 (stereo not shown) [Compound 59]

- IC50 ([1]; read-out: IC50, displacement of biotinylated-BIM peptide from hMcl-1 (DELFIA)): 7.5 µM
- ΔH, isothermal titration calorimetry ([3]; 25 °C): -10 kcal/mol
- Kd [3, 6]: ~2 µM and 1.71 µM
- LE ([3]; from ITC Kd): ~0.16
- Kd [3, 7]: 1.71 ± 0.3 µM
- CSP2 (Table S4) ([2]; shift of the peak at -0.08 ppm, 1D-1H-aliphatic spectrum): + (0.01 ppm < CSP < 0.05 ppm)
- CSP1 (Table S4) [2]: +++ (0.1 ppm < CSP < 0.13 ppm)
- koff ([4]; 20 μM 13Cε-Met hMcl-1, read-out: koff, estimated upper limit from Met 231 chemical shift differences (slow exchange)): < 519 s⁻¹
- dissociation constant corresponding to off-rate ([4]; assuming diffusion limited on rate of 10^9 M^–1 s^–1): low micromolar
- activity against hBfl-1 in DELFIA displacement assay [5]: inactive
SMILES: COc1cc(C)c(C(C)C)cc1S(=O)(=O)NC(CC(=O)O)C(=O)N1C(C(=O)NC(Cc2c[nH]c3ccccc23)C(N)=O)CC2CCCCC21 [Compound 50, (3R)-4-((2S)-2-(((S)-1-Amino-3-(1H-indol-3-yl)-1-oxopropan-2-yl)carbamoyl)octahydro-1H-indol-1-yl)-3-((5-isopropyl-2-methoxy-4-methylphenyl)sulfonamido)-4-oxobutanoic Acid]
